# Positions of bridges follow the written chain, without caps; N, C: chain ends. Non-standard residues stand in square brackets, D forms with d. Residues, ends and D or L forms follow the SMILES beside them. *: point of attachment. Tetradecanoyl(3R-OH) = CCCCCCCCCCC[C@@H](O)CC(=O)*; Asp(3S-OH) = N[C@H](C(=O)O)[C@H](O)C(=O)O; Thr(4-Cl) = N[C@H](C(=O)O)[C@H](O)CCl; aThr = C[C@H](O)[C@H](N)C(=O)O; dDab = NCC[C@@H](N)C(=O)O; Dab = NCC[C@H](N)C(=O)O; Dhb = C/C=C(\N)C(=O)O
# Legend:
# Aspergillus fumigatus = assay: Lowest concentration required to inhibit 90-100% in vitro growth of Aspergillus fumigatus; format: functional
# Cryptococcus neoformans = assay: Lowest concentration required to inhibit 90-100% in vitro growth of Cryptococcus neoformans
# Candida albicans = assay: Lowest concentration required to inhibit 90-100% in vitro growth of Candida albicans; format: functional
# Mus musculus [1] = species: Mus musculus; assay: Ratio of the drug concentration required to achieve 50% survival of fungal infection compared with untreated animals to that of ED50 of PSB; format: functional
# Mus musculus [2] = assay: Tail vein toxicity at 20 mg/kg dose was determined in mice;Positive; format: functional, organism-based; set-up: dose 20 mg/kg
# Mus musculus [3] = species: Mus musculus; assay: Ratio of the drug concentration required to achieve 50% survival of fungal infection compared with untreated animals to that of ED50 of PSB;value in range of 2-7; format: functional
SMILES,MIC (Aspergillus fumigatus) [µg/mL],MIC (Cryptococcus neoformans) [µg/mL],MIC (Candida albicans) [µg/mL],Ratio (Mus musculus [1]),Toxicity (Mus musculus [2]),Ratio (Mus musculus [3])
C/C=C1\NC(=O)[C@H]([C@@H](C)O)NC(=O)[C@H](CCN)NC(=O)[C@H](CCCCN)NC(=O)[C@H](CC(=O)O)NC(=O)[C@@H](CCN)NC(=O)[C@@H](NC(=O)C[C@H](O)CCCCCCCCCCCCCCC)COC(=O)[C@H]([C@H](O)CCl)NC(=O)[C@H]([C@H](O)C(=O)O)NC1=O,5,0.02,1.25,>20,,
C/C=C1\NC(=O)[C@H]([C@@H](C)O)NC(=O)[C@H](CCNC(=O)OCOC(=O)C(C)(C)C)NC(=O)[C@H](CCCCNC(=O)OCOC(=O)C(C)(C)C)NC(=O)[C@H](CC(=O)O)NC(=O)[C@@H](CCNC(=O)OCOC(=O)C(C)(C)C)NC(=O)[C@@H](NC(=O)C[C@@H](O)CCCCCCCCCCC)COC(=O)[C@H]([C@H](O)CCl)NC(=O)[C@H]([C@H](O)C(=O)O)NC1=O,> 20,> 20,> 20,6.4,,
C/C=C1\NC(=O)[C@H]([C@@H](C)O)NC(=O)[C@H](CCN)NC(=O)[C@H](CCCCN)NC(=O)[C@H](CC(=O)OC)NC(=O)[C@@H](CCN)NC(=O)[C@@H](NC(=O)C[C@@H](O)CCCCCCCCCCC)COC(=O)[C@H]([C@H](O)CCl)NC(=O)[C@H]([C@H](O)C(=O)OC)NC1=O,20,0.01,2.5,7.8,,
C/C=C1\NC(=O)[C@H]([C@@H](C)O)NC(=O)[C@H](CCN)NC(=O)[C@H](CCCCN)NC(=O)[C@H](CC(=O)NC2CC2)NC(=O)[C@@H](CCN)NC(=O)[C@@H](NC(=O)C[C@@H](O)CCCCCCCCCCC)COC(=O)[C@H]([C@H](O)CCl)NC(=O)[C@H]([C@H](O)C(=O)O)NC1=O,> 20,< 0.01,0.156,<5,,
C/C=C1\NC(=O)[C@H]([C@@H](C)O)NC(=O)[C@H](CCNC(=O)OCOC(=O)C(C)C)NC(=O)[C@H](CCCCNC(=O)OCOC(=O)C(C)C)NC(=O)[C@H](CC(=O)O)NC(=O)[C@@H](CCNC(=O)OCOC(=O)C(C)C)NC(=O)[C@@H](NC(=O)C[C@@H](O)CCCCCCCCCCC)COC(=O)[C@H]([C@H](O)CCl)NC(=O)[C@H]([C@H](O)C(=O)O)NC1=O,> 20,> 20,> 20,11.4,,
C/C=C1\NC(=O)[C@H]([C@@H](C)O)NC(=O)[C@H](CCN)NC(=O)[C@H](CCCCN)NC(=O)[C@H](CC(=O)NCCN(C)C)NC(=O)[C@@H](CCN)NC(=O)[C@@H](NC(=O)C[C@@H](O)CCCCCCCCCCC)COC(=O)[C@H]([C@H](O)CCl)NC(=O)[C@H]([C@H](O)C(=O)O)NC1=O,5,< 0.01,0.156,<5,,
C/C=C1\NC(=O)[C@H]([C@@H](C)O)NC(=O)[C@H](CCNC(=O)OCc2oc(=O)oc2C)NC(=O)[C@H](CCCCNC(=O)OCc2oc(=O)oc2C)NC(=O)[C@H](CC(=O)O)NC(=O)[C@@H](CCNC(=O)OCc2oc(=O)oc2C)NC(=O)[C@@H](NC(=O)C[C@@H](O)CCCCCCCCCCCCCCC)COC(=O)[C@H]([C@H](O)CCl)NC(=O)[C@H]([C@H](O)C(=O)O)NC1=O,> 20,> 20,> 20,>19,,
C/C=C1\NC(=O)[C@H]([C@H](C)O)NC(=O)[C@H](CCN)NC(=O)[C@H](CCCCN)NC(=O)[C@H](CC(=O)O)NC(=O)[C@@H](CCN)NC(=O)[C@@H](NC(=O)C[C@H](O)CCCCCCCCCCC)COC(=O)[C@H]([C@H](O)CCl)NC(=O)[C@H]([C@H](O)C(=O)O)NC1=O [PSEUDOMYCIN B] ({Tetradecanoyl(3R-OH)}-S[dDab]DK[Dab][aThr][Dhb][Asp(3S-OH)][Thr(4-Cl)]; ester 1-C),20,0.039,0.625,,Positive,7
C/C=C1\NC(=O)[C@H]([C@@H](C)O)NC(=O)[C@H](CCNC(=O)OCOC(=O)C(C)C)NC(=O)[C@H](CCCCNC(=O)OCOC(=O)C(C)C)NC(=O)[C@H](CC(=O)O)NC(=O)[C@@H](CCNC(=O)OCOC(=O)C(C)C)NC(=O)[C@@H](NC(=O)C[C@@H](O)CCCCCCCCCCCCCCC)COC(=O)[C@H]([C@H](O)CCl)NC(=O)[C@H]([C@H](O)C(=O)O)NC1=O,> 20,> 20,> 20,>14,,
C/C=C1\NC(=O)[C@H]([C@@H](C)O)NC(=O)[C@H](CCN)NC(=O)[C@H](CCCCN)NC(=O)[C@H](CC(=O)OC)NC(=O)[C@@H](CCN)NC(=O)[C@@H](NC(=O)C[C@@H](O)CCCCCCCCCCCCCCC)COC(=O)[C@H]([C@H](O)CCl)NC(=O)[C@H]([C@H](O)C(=O)OC)NC1=O,20,1.25,5,>20,,
C/C=C1/NC(=O)[C@H]([C@@H](C)O)NC(=O)[C@H](CCNC(=O)OCOC(=O)C(C)(C)C)NC(=O)[C@H](CCCCNC(=O)OCOC(=O)C(C)(C)C)NC(=O)[C@H](CC(=O)O)NC(=O)[C@@H](CCNC(=O)OCOC(=O)C(C)(C)C)NC(=O)[C@@H](NC(=O)C[C@@H](O)CCCCCCCCCCCCCCC)COC(=O)[C@H]([C@H](O)CCl)NC(=O)[C@H]([C@H](O)C(=O)O)NC1=O,> 20,> 20,> 20,>20,,
C/C=C1\NC(=O)[C@H]([C@H](C)O)NC(=O)[C@H](CCN)NC(=O)[C@H](CCCCN)NC(=O)[C@H](CC(=O)O)NC(=O)[C@@H](CCN)NC(=O)[C@@H](NC(=O)C[C@H](O)CCCCCCCCCCCCCCC)COC(=O)[C@H]([C@H](O)CCl)NC(=O)[C@H]([C@H](O)C(=O)O)NC1=O,5,0.01,0.625,>20,Positive,
C/C=C1\NC(=O)[C@H]([C@@H](C)O)NC(=O)[C@H](CCNC(=O)OCc2oc(=O)oc2C)NC(=O)[C@H](CCCCNC(=O)OCc2oc(=O)oc2C)NC(=O)[C@H](CC(=O)O)NC(=O)[C@@H](CCNC(=O)OCc2oc(=O)oc2C)NC(=O)[C@@H](NC(=O)C[C@@H](O)CCCCCCCCCCC)COC(=O)[C@H]([C@H](O)CCl)NC(=O)[C@H]([C@H](O)C(=O)O)NC1=O,> 20,> 20,> 20,7.8,,

# Reference: ChEMBL document CHEMBL1134745, “Synthesis and evaluation of novel pseudomycin side-chain analogues. Part 3” (2001)
